From patent US11814352B2, “Salts formed by 2-(1-acyloxy-n-pentyl) benzoic acid and basic amino acid or aminoguanidine, and preparation method and application thereof” (JIANGSU KANION PHARMACEUTICAL CO., LTD., priority 2018, dated 2023)
Like-named read-outs stand apart in the source and are kept apart here. Marks after values point to notes of the source that are not given here.

How the values were obtained:
[1] = test system: ADP induced platelet aggregation; assay: In vitro anti-platelet aggregation, ADP induced (turbidimetry, PRP); assay type: cell-based, rabbits; conditions: read-out: IC50 ADP (10 μM); rabbit PRP, inducer ADP 10 μM, 37° C.
[2] = test system: AA induced platelet aggregation; assay: In vitro anti-platelet aggregation, AA induced (turbidimetry, PRP); assay type: cell-based, rabbits; conditions: read-out: IC50 AA (1 mM); rabbit PRP, inducer AA 1 mM, 37° C.
[3] = test system: bleeding time in mice after tail cutting; assay: Effect on bleeding time in mice after tail cutting; assay type: in vivo, Kunming mice; conditions: 5 mg/kg orally once a day for 14 days, 1 h after last dose
Protocol: SPF Kunming mice, weighing 18-22 g, purchased from Beijing Vital River Laboratory Animal Technology Co., Ltd., having a certificate number of SCXK (Beijing) 2010-0002, raised in an SPF animal room with indoor temperature controlled at 23±2° C., and allowed to freely eat and drink. The day and night time was 12 h/12 h.
The administration dose level of the positive drug groups and the test drug groups was 5 mg/kg, and the same amount of normal saline was given to the negative control group. All mice were administered for 14 consecutive days orally once a day. One hour after the last dose, the mice were anesthetized with 1-2% isoflurane, and the tails were cut for 5 mm. The tips of the tails were absorbed dry with filter paper every 30 seconds until the bleeding stopped naturally. Bleeding time is defined as the interval between the start and stop of bleeding.

[4] = test system: arteriovenous bypass thrombosis in rats; assay: Effect on arteriovenous bypass thrombosis in rats; assay type: in vivo, SD rats; conditions: 10 mg/kg/day tail vein 7 days; for inhibition at 10 mg/kg/day: Rattus norvegicus, 168 h, vs model group
How it was run: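 Male SD rats (250-280 g) dosed 10 mg/kg/day i.v. (tail vein, saline with 1% DMSO) for 7 days, n=8; vehicle controls. Two hours after the last dose, under pentobarbital, a carotid–jugular shunt holding a weighed suture ran for 15 min; thrombus wet and dry (24 h air-dried) weights taken.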

MCAO rats = assay: Cerebral infarction, cerebral edema and nerve function of rats with focal cerebral ischemia (MCAO); assay type: in vivo, SD rats; conditions: MCAO rats; for inhibition at 10 mg/kg/day: Rattus norvegicus
[5] = Acute toxicity test, tail vein injection in mice; conditions: female, ICR, mouse, in vivo, iv, LD50 value, Bliss method
ICR mice = assay: Acute toxicity test, tail vein injection in mice; conditions: for Number of deaths (quantity): 10 animals, 14 days
[6] = 10 mg/kg/day iv 3 days (combinations equimolar), first dose 2 h after reperfusion

## CCCC[C@H](OC(C)=O)c1ccccc1C(=O)O [I1s, L-Arginine (S)-2-(1-Acetoxy-n-Pentyl) Benzoate]
[1]
  IC50: 720 ± 80 µM
[2]
  IC50: 160 ± 20 µM
[3]
  Bleeding time: 25.31 ± 1.01 min
[4]; 2 h after last dose
  Dry weight of thrombus: 5.52 ± 0.44
  Wet weight of thrombus: 20.23 ± 1.25**^
[4]; read-out: Inhibition rate (dry weight of thrombus)
  inhibition at 10 mg/kg/day: 45%
[4]; read-out: Inhibition rate (wet weight of thrombus)
  inhibition at 10 mg/kg/day: 44.1%
MCAO rats; [6]
  Cerebral edema: 0.18 ± 3.96%
  Infarct volume: 9.12 ± 1.18%
MCAO rats; 10 mg/kg/day iv, 2 h after reperfusion
  Neurological function of rats with focal cerebral ischemia: significant neurological improvement effects
MCAO rats; 10 mg/kg/day iv 3 days (combinations equimolar), first dose 2 h after reperfusion, read-out: Inhibition rate of cerebral edema
  inhibition at 10 mg/kg/day: 98.8%
MCAO rats; 10 mg/kg/day iv 3 days (combinations equimolar), first dose 2 h after reperfusion, read-out: Inhibition rate of infarct volume
  inhibition at 10 mg/kg/day: 78.2%
[5]
  LD50 at 14 days: 1120 mg/kg
[5]; interval in parentheses
  LD50 at 14 days: 975 to 1290 mg/kg
ICR mice; higher dose in the tail vein
  Symptoms of poisoning: convulsions and decreased activity
ICR mice; i.v. 700 mg/kg
  Body weight D 1: 19.4 ± 0.6 g
  Body weight D 7: 21.0 ± 0.6 g
  Body weight D 14: 22.3 ± 0.7 g
  Number of deaths (quantity): 1
ICR mice; i.v. 900 mg/kg
  Body weight D 1: 19.8 ± 0.5 g
  Body weight D 7: 20.9 ± 0.6 g
  Body weight D 14: 22.2 ± 0.6 g
  Number of deaths (quantity): 2
ICR mice; i.v. 1100 mg/kg
  Body weight D 1: 19.4 ± 0.6 g
  Body weight D 7: 21.0 ± 0.5 g
  Body weight D 14: 22.0 ± 0.5 g
  Number of deaths (quantity): 4
ICR mice; i.v. 1300 mg/kg
  Body weight D 1: 19.5 ± 0.4 g
  Body weight D 7: 20.8 ± 0.6 g
  Body weight D 14: 22.1 ± 0.6 g
  Number of deaths (quantity): 6
ICR mice; i.v. 1500 mg/kg
  Body weight D 1: 19.9 ± 0.2 g
  Body weight D 7: 21.0 g
  Body weight D 14: 23.6 g
  Number of deaths (quantity): 9
